The results in this text go back to paper PMC11315935, “Multi-layered heterochromatin interaction as a switch for DIM2-mediated DNA methylation” (Nature Communications, 2024).

In the data set the test system is DIM2. The data set is described as follows: In vitro DNA methylation kinetics, substrate specificity of DIM2. As to conditions: Sup Fig. 1f, 0.25 µM DIM2, 1.0 µM DNA, 1.0 µM H3K9me3 peptide, 0.5 µM HP1, pH 8.0, 30 °C. The class given is biochemical, Neurospora Crassa. Further details: unit not given here. How it is done: In vitro DNA methylation assay was performed in a 20-µL reaction mixture. For the substrate specificity assay, the following DNA duplexes were used as substrates: CG DNA (Upper strand: 5’-[…]-3’), hemimethylated CG DNA (Upper strand: 5’-TAAATTTXGATTAATAAT-3’, X = 5-methylcytosine; Lower strand: 5’-[…] -3’), CHG DNA (Upper strand: 5’-[…]-3’), and CHH DNA (Upper strand: 5’-[…]-3’). The reaction mixture contains 0.25 µM DIM2, 1.0 µM DNA duplex, 1.0 µM synthesized H3K9me3 peptide (residues 1-24 of H3 plus a C-terminal tryptophan), 0.5 µM HP1, and 0.56 µM S-adenosyl-L-[methyl-^3H] methionine with a specific activity of 18 Ci/mmol (PerkinElmer) in buffer containing 50 mM Tris-HCl (pH 8.0), 100 mM NaCl, 0.05% β-mercaptoethanol, 5% glycerol, and 200 µg/mL BSA. For the rest of the DNA methylation assay, each reaction mixture contains 1.0 µM DIM2, 1.0 µM (CAT)12/(ATG)12 DNA duplex and 0.56 µM S-adenosyl-L-[methyl-^3H] methionine with a specific activity of 18 Ci/mmol (PerkinElmer) in buffer containing 50 mM Tris-HCl (pH 8.0), 100 mM NaCl, 0.05% β-mercaptoethanol, 5% glycerol, and 200 µg/mL BSA. In addition, 1.0 µM synthesized H3K9me3 or H3K9me0 peptide (residues 1-24 of H3 plus a C-terminal tryptophan) and/or 2 µM HP1 protein was included to evaluate the effect of H3 and HP1 regulation. The reaction mixture was incubated at 30 °C for 30 min, unless indicated otherwise, before being quenched by the addition of 5 µL of 10 mM cold SAM. After the reaction, 8 μL of the mixtures was loaded onto Hybond N nylon membrane (GE Healthcare), which was left to dry out at room temperature. The membrane was subsequently washed with 0.2 M ammonium bicarbonate (pH 8.2) two times (20 min per time), deionized water (20 min) once, and 95% ethanol (5 min) once. After air dried, the membrane carrying each sample was transferred into a vial containing 3 mL scintillation buffer (Fisher). The tritium scintillation was measured and recorded by a Beckman LS6500 counter. Each the reaction was repeated three times.

Setting [1] is: reaction time 0 min, replicate 1.
Where [2] appears, read: reaction time 0 min, replicate 2.
Where [3] appears, read: reaction time 0 min, replicate 3.
Where [4] appears, read: reaction time 15 min, replicate 1.
Setting [5] is: reaction time 15 min, replicate 2.
Setting [6] is: reaction time 15 min, replicate 3.
The mark [7] stands for this setting: reaction time 30 min, replicate 1.
Setting [8] is: reaction time 30 min, replicate 2.
Where [9] appears, read: reaction time 30 min, replicate 3.

For the substance “CG: CG DNA (Upper strand: 5’-ATTATTAATCGAAATTTA-3’) (DNA, backbone not given here; DNA duplex substrate for methylation assay)”, the DNA methylation kinetics was determined as 0.019 under setting [1]; 0.03 under setting [2]; 0.038 under setting [3]; 0.476 under setting [4]; 0.828 under setting [5]; 0.621 under setting [6]. The DNA methylation kinetics reads like this: under setting [7], 1.426; under setting [8], 1.174; under setting [9], 1.115.

“CHH: CHH DNA (Upper strand: 5’-ATTATTAATCTAAATTTA-3’) (DNA, backbone not given here; DNA duplex substrate for methylation assay)”: the DNA methylation kinetics under setting [1] is reported as 0.004; the DNA methylation kinetics under setting [2] was found to be 0.003; the DNA methylation kinetics under setting [3] was 0.026; the DNA methylation kinetics under setting [4] amounted to 0.184; the DNA methylation kinetics under setting [5] is 0.154; the DNA methylation kinetics under setting [6] worked out at 0.169. The DNA methylation kinetics under setting [7] is on record as 0.346, the DNA methylation kinetics under setting [8] turned out to be 0.291 and the DNA methylation kinetics under setting [9] is given as 0.235.

Turning to “CHG: CHG DNA (Upper strand: 5’-ATTATTAATCTGAATTTA-3’) (DNA, backbone not given here; DNA duplex substrate for methylation assay)”, the DNA methylation kinetics runs as follows: under setting [1], 0.037; under setting [2], 0.044; under setting [3], 0.013; under setting [4], 1.24; under setting [5], 1.116; under setting [6], 1.338. The DNA methylation kinetics was 1.866 under setting [7], 1.872 under setting [8] and 1.906 under setting [9].
